Source: patent US20230414771A1, “PREPARATION AND USE OF IMMUNOSTIMULATORY CONJUGATED COMPLEXES FOR TARGETED DELIVERY AND ACTIVATION” (YAFEI SHANGHAI BIOLOGY MEDICINE SCIENCE & TECHNOLOGY CO., …, priority 2020, published 2023)
Where a SMILES comes first, the peptide text is derived from it. [ ]: non-standard residue; d: D form. The star is where a group is joined. ξ: configuration not given here. Doxorubicin(3'-N) = COc1cccc2c1C(=O)c1c(O)c3c(c(O)c1C2=O)C[C@@](O)(C(=O)CO)C[C@@H]3O[C@H]1C[C@H](N*)[C@H](O)[C@H](C)O1; X2 = CC(C)(C)c1nc(-c2cccc(NS(=O)(=O)c3c(F)cccc3F)c2F)c(-c2ccnc(N*)n2)s1; Thyronine(3,5,3'-I3) = N[C@@H](Cc1cc(I)c(Oc2ccc(O)c(I)c2)c(I)c1)C(=O)O; Hexanoyl(6-maleimido) = O=C1C=CC(=O)N1CCCCCC(=O)*; Propanoyl(3-maleimido) = O=C1C=CC(=O)N1CCC(=O)*; PEG6 = NCCOCCOCCOCCOCCOCCOCCC(=O)O; X3 = O=C1C=CC(=O)N1CCOCCOCCC(=O)*; PEG3 = NCCOCCOCCOCCC(=O)O; PEG2 = NCCOCCOCCC(=O)O; ξL = CC(C)CC(N)C(=O)O

Tests used:
[1] = Water solubility test (observation and HPLC); assay type: physicochemical; settings: thermodynamic from solid
Method: The compounds prepared in accordance with the examples of the disclosure and the reference compounds C1, C2, C3 and C4 were lyophilized (−70° C.).

NAFLD model mice = assay: Nonalcoholic fatty liver disease (NAFLD) model mice, serum HDL-C and LDL-C; assay type: in vivo; settings: NAFLD (high-fat diet) C57 mice, IV twice a week for 8 weeks, 12 hour after last administration, normal group 100%; for Change from normal group HDL-C: serum HDL-C; for Change from normal group LDL-C: serum LDL-C
Method: • Methods: C57 mice were randomly divided into normal group (standard diet), model group (high-fat diet), simvastatin group (positive control, 3 mg/kg) and drug group (50 mg/kg), with 6 mice in each group. The normal group was fed with standard diet, and the other groups were fed with high-fat diet to induce NAFLD model. At the same time of modeling, the mice in each group were given the corresponding dose of 48 umol/kg medicine IV twice a week for 8 weeks in total. 12 hour after the last administration, the serum biochemical indicators were determined by automatic biochemical analyzer: High density lipoprotein cholesterol (HDL-C), and low density lipoprotein (LDL-C).

CT26 tumor = CT26 tumor immune model, tumor suppression and CD8+ T cell analysis; assay type: in vivo, BALB/c mice; settings: for CD8:CD45 (%): CD8-positive among CD45-positive cells in tumor, flow cytometry; for Tumor inhibition rate (%) Day 28 / Tumor volume (mm^3) Day 28: drug 36 umol/kg once a week for three weeks, PD-1 antibody 5 mg/kg
Method: • 1) CT26 cells were purchased from ATCC. […] The corresponding 5×10^6 cells were injected subcutaneously into the back of […] mice. After the size of tumors reached at least 100 mm^3, the mice were randomized into groups. Treatment was then initiated, with the day of treatment initiation being Day 1. • 3) The course of treatment. The drug was administered at an equimolar dose of 36 umol/kg. The control group was given normal saline. The drug was administered once a week for three week. • 4) Tumor CD8+ T cell analysis. Tumor tissue was homogenized, individual cells in the tumor were filtered, dissociated and washed twice with buffer, and then incubated with leukocyte common antigen CD45-PE and CD8-FITC-labeled antibodies for 1 hour at room temperature. The cells were washed twice with phosphate buffered saline containing 1% fetal bovine serum, and then the proportion of T lymphocyte antigen (CD8)-positive cells in leukocyte common antigen (CD45)-positive cells was analyzed by flow cytometry. An increase in the ratio indicates an increase in T lymphocytes and therefore an improvement in the immunity of the animal to the tumor. • 5) The grouping and test results are shown in Table 7.

[2] = system: Human hepatoma HepG2 cells; assay: Human liver cancer HepG2 tumors in nude mice; assay type: in vivo
Method: • 1. Animals: nude mice aged 6-8 weeks, all female. • 2. Preparation of tumor models
Human hepatoma HepG2 cells were purchased from ATCC and identified according to the instructions provided. […] Randomization was performed when the tumor size reached 100 mm^3.
Treatment was then initiated, and the day of initiation of treatment was counted as Day 1. • 3) Treatment process
According to the clinical application of the corresponding compound, the drug was administered intravenously (IV). The compound and the control drug were administered at a dose of 54 umol/kg, and DOX could only be administered at a dose of 18 umol/kg due to toxicity limitations.

Structure (SMILES)	solubility [1] [µg/mL]	Change from normal group HDL-C (NAFLD model mice) [%]	Change from normal group LDL-C (NAFLD model mice) [%]	CD8:CD45 (%) (CT26 tumor)	Tumor inhibition rate (%) Day 28 (CT26 tumor) [%]	Tumor volume (mm^3) Day 28 (CT26 tumor) [mm^3]	further results
C[C@H](NC(=O)CCOCCOCCNC(=O)CCN1C(=O)C=CC1=O)C(=O)N[C@@H](C)C(=O)N[C@@H](CC(N)=O)C(=O)N[C@@H](Cc1cc(I)c(Oc2ccc(O)c(I)c2)c(I)c1)C(=O)O [QHL-157-T3] ({Propanoyl(3-maleimido)-PEG2}-AAN[Thyronine(3,5,3'-I3)]-OH)	> 10000	94.8	110.7	–	–	–	–
CCOCc1nc2c(NC(=O)OCc3ccc(NC(=O)[C@H](CC(N)=O)NC(=O)[C@H](C)NC(=O)[C@H](C)NC(=O)CCCCCN4C(=O)C=CC4=O)cc3)nc3ccccc3c2n1CC(C)(C)O [QHL-140-resiquimod]	–	–	–	15.4	81.9	342.8 ± 112.9	–
CC(C)CC(NC(=O)[C@@H](CC(N)=O)NC(=O)[C@@H](C)NC(=O)[C@@H](C)NC(=O)CCOCCOCCOCCNC(=O)CCN1C(=O)C=CC1=O)C(=O)Nc1nccc(-c2sc(C(C)(C)C)nc2-c2cccc(NS(=O)(=O)c3c(F)cccc3F)c2F)n1 (stereo partly shown) [QHL-090-dabrafenib] ({Propanoyl(3-maleimido)-PEG3}-[dA][dA][dN][ξL]-X2)	> 10000	–	–	7.4	68.7	589.7 ± 247.4	therapeutic effect combined with PD-1, in words (CT26 tumor; combined with PD-1 versus single drug): a certain synergistic effect
C[C@H](NC(=O)CCCCCN1C(=O)C=CC1=O)C(=O)N[C@@H](C)C(=O)N[C@@H](CC(N)=O)C(=O)N[C@@H](Cc1cc(I)c(Oc2ccc(O)c(I)c2)c(I)c1)C(=O)O [QHL-150-T3] ({Hexanoyl(6-maleimido)}-AAN[Thyronine(3,5,3'-I3)]-OH)	> 10000	86.8	119.32	–	–	–	–
CCC(C)(C)C(=O)O[C@H]1C[C@@H](C)C=C2C=C[C@H](C)[C@H](CC[C@@H]3C[C@@H](O)CC(=O)O3)[C@H]21 [simvastatin, reference compound]	–	86.3	118.3	–	–	–	–
C[C@H](NC(=O)CCOCCOCCOCCNC(=O)CCN1C(=O)C=CC1=O)C(=O)N[C@@H](C)C(=O)N[C@H](CC(N)=O)C(=O)N[C@@H](Cc1cc(I)c(Oc2ccc(O)c(I)c2)c(I)c1)C(=O)O [QHL-158-T3] ({Propanoyl(3-maleimido)-PEG3}-AA[dN][Thyronine(3,5,3'-I3)]-OH)	> 10000	91.9	103.6	–	–	–	–
C[C@H](NC(=O)CCOCCOCCOCCOCCOCCOCCNC(=O)CCN1C(=O)C=CC1=O)C(=O)N[C@@H](C)C(=O)N[C@H](CC(N)=O)C(=O)N[C@@H](Cc1cc(I)c(Oc2ccc(O)c(I)c2)c(I)c1)C(=O)O [QHL-160-T3] ({Propanoyl(3-maleimido)-PEG6}-AA[dN][Thyronine(3,5,3'-I3)]-OH)	> 10000	89.4	117.5	–	–	–	–
CC(C)CC(NC(=O)[C@@H](CC(N)=O)NC(=O)[C@@H](C)NC(=O)[C@@H](C)NC(=O)CCOCCOCCNC(=O)CCN1C(=O)C=CC1=O)C(=O)Nc1nccc(-c2sc(C(C)(C)C)nc2-c2cccc(NS(=O)(=O)c3c(F)cccc3F)c2F)n1 (stereo partly shown) [QHL-087-dabrafenib] ({Propanoyl(3-maleimido)-PEG2}-[dA][dA][dN][ξL]-X2)	> 10000	–	–	6.4	64.0	678.4 ± 348.7	–
COc1cccc2c1C(=O)c1c(O)c3c(c(O)c1C2=O)C[C@@](O)(C(=O)CO)C[C@@H]3O[C@H]1C[C@H](NC(=O)[C@H](CC(C)C)NC(=O)[C@H](CC(N)=O)NC(=O)[C@H](C)NC(=O)[C@H](C)NC(=O)CCOCCOCCN2C(=O)C=CC2=O)[C@H](O)[C@H](C)O1 [QHL-009-DOX] (X3-AANL-{Doxorubicin(3'-N)})	–	–	–	–	–	–	Tumor volume (mm^3) Day 28 ([2]; 54 umol/kg IV once a week for 4 weeks): 0 mm^3; inhibition in vivo at 54 µmol/kg ([2]; Mus musculus, HepG2, iv, 672 h, read-out: Tumor inhibition rate (%) Day 28): 100%
